These are literature values, as cited in patent US20230414496A1, “BIODEGRADABLE POLYMER-NANOPARTICLE BASED IMPLANTS FOR OCULAR DRUG DELIVERY” (priority 2020, published 2023).

The conditions of series [1]: 400 μg MTX intravitreal injection.
The conditions of series [2]: 400 μg MTX intravitreal injection, pre-clinical study; read-out: peak MTX concentration (Cmax-MTX).

Read-outs that look alike come from different tables or passages of the source.

As to `CN(Cc1cnc2nc(N)nc(N)c2n1)c1ccc(C(=O)N[C@@H](CCC(=O)O)C(=O)O)cc1` [methotrexate], the “total duration of MTX release” value in series [1] (clinical study and pre-clinical study) is 2 to 6 days. For the same compound, the Cmax in series [1] (clinical study, read-out: peak MTX concentration (Cmax-MTX)) was 360 µM; in series [2], 400 µM.
